Measured values as given in US5929075A, “Apolipoprotein-B synthesis inhibitors” (Janssen Pharmaceutica, N.V., priority 1994, dated 1999).

System: apolipoprotein B
Experiment: Apolipoprotein B (apo B) inhibition test in cultured human liver cells (Hepg2-cells)
Type: cell-based
Conditions: concentration of the drug needed to reduce apoB secretion to 50% of the control, overnight at 37° C.
Protocol: Cultured human liver cells (Hepg2-cells), which synthesize and secrete low-density lipoproteins, were incubated overnight at 37° C. in a liquid medium containing radioactively labelled leucine. Thus radioactively labelled leucine was incorporated into the apolipoprotein B. The liquid medium was decanted and the apolipoprotein B was isolated by means of a double immunoprecipitation, i.e. first an apolipoprotein B-specific antibody (antibody1) was added to the liquid medium and subsequently a second antibody (antibody2) was added which binds specifically to the apoB-antibody1 -complex. The thus formed apoB-antibody1 -antibody2 complex precipitated and was isolated by centrifuge. Quantification of the amount of apolipoprotein B synthesized during the night resulted from measuring the radioactivity of the isolated complex. To measure the inhibiting activity of the test compound, that test compound was added to the liquid medium at different concentrations and the concentration of apolipoprotein B synthesized in the presence of a test compound (concentration apoB(after)) was compared to the concentration of apolipoprotein B which was synthesized in the absence of the test compound (concentration apoB(control)). For each experiment the inhibition of apolipoprotein-B formation was expressed as
% inhibition=100×(1-concentration of apoB(after)/concentration
When more experiments were carried out for the same concentration, the median value of the inhibition calculated for these experiments was calculated. IC50 -values (concentration of the drug needed to reduce apoB secretion to 50% of the control) were also computed.

SMILES	IC50 [nM]
Cn1ncnc1SC[C@]1(c2ccc(F)cc2F)OC[C@H](COc2ccc(N3CCN(c4ccc(-n5ncn(C6CCCC6)c5=O)cc4)CC3)cc2)O1 (relative stereo) [Compound 72]	190
CCC(CC)n1cnn(-c2ccc(N3CCN(c4ccc(OC[C@H]5CO[C@](CSc6ncnn6C)(c6ccc(F)cc6F)O5)cc4)CC3)cc2)c1=O (relative stereo) [Compound 73]	180
Cn1ncnc1SC[C@]1(c2ccc(F)cc2)OC[C@H](COc2ccc(N3CCN(c4ccc(-n5ncn(C6CCCC6)c5=O)cc4)CC3)cc2)O1 (relative stereo) [Compound 74]	140
CCC(CC)n1cnn(-c2ccc(N3CCN(c4ccc(OC[C@H]5CO[C@](CSc6ncnn6C)(c6ccc(F)cc6)O5)cc4)CC3)cc2)c1=O (relative stereo) [Compound 75]	120
CCC(C)n1ncn(-c2ccc(N3CCN(c4ccc(OC[C@H]5CO[C@](CSc6ncn[nH]6)(c6ccc(Cl)cc6)O5)cc4)CC3)cc2)c1=O (relative stereo) [Compound 76]	24
CCC(C)n1ncn(-c2ccc(N3CCN(c4ccc(OC[C@H]5CO[C@](CSc6ncnn6CC)(c6ccc(Cl)cc6)O5)cc4)CC3)cc2)c1=O (relative stereo) [Compound 77]	71
CCCn1nc(CC)nc1SC[C@]1(c2ccc(Cl)cc2)OC[C@H](COc2ccc(N3CCN(c4ccc(-n5cnn(C(C)CC)c5=O)cc4)CC3)cc2)O1 (relative stereo) [Compound 78]	53
CCCCn1ncnc1SC[C@]1(c2ccc(Cl)cc2)OC[C@H](COc2ccc(N3CCN(c4ccc(-n5cnn(C(C)CC)c5=O)cc4)CC3)cc2)O1 (relative stereo) [Compound 79]	46
CCCn1ncnc1SC[C@]1(c2ccc(Cl)cc2)OC[C@H](COc2ccc(N3CCN(c4ccc(-n5cnn(C(C)CC)c5=O)cc4)CC3)cc2)O1 (relative stereo) [Compound 80]	72
CCC(C)n1ncn(-c2ccc(N3CCN(c4ccc(OC[C@H]5CO[C@](CSc6nc(C)nn6C)(c6ccc(Cl)cc6)O5)cc4)CC3)cc2)c1=O (relative stereo) [Compound 81]	49
CCC(C)n1ncn(-c2ccc(N3CCN(c4ccc(OC[C@@H]5CO[C@@](CSc6ncnn6C(C)C)(c6ccc(Cl)cc6)O5)cc4)CC3)cc2)c1=O (relative stereo) [Compound 82]	31
CCC(C)n1cnn(-c2ccc(N3CCN(c4ccc(OC[C@H]5CO[C@](CSc6ncn[nH]6)(c6ccc(Cl)cc6)O5)cc4)CC3)cc2)c1=O (relative stereo) [Compound 83]	15
CC(C)Cn1cnn(-c2ccc(N3CCN(c4ccc(OC[C@H]5CO[C@](CSc6ncn[nH]6)(c6ccc(Cl)cc6)O5)cc4)CC3)cc2)c1=O (relative stereo) [Compound 84]	28
CC(C)Cn1cnn(-c2ccc(N3CCN(c4ccc(OC[C@H]5CO[C@](CSc6ncnn6C)(c6ccc(Cl)cc6)O5)cc4)CC3)cc2)c1=O (relative stereo) [Compound 87]	69
CCC(C)n1ncn(-c2ccc(N3CCN(c4ccc(OC[C@H]5CO[C@](CSc6nnnn6C)(c6ccc(Cl)cc6)O5)cc4)CC3)cc2)c1=O (relative stereo) [Compound 88]	450
CCC(C)n1ncn(-c2ccc(N3CCN(c4ccc(OC[C@H]5CO[C@](CSc6nnnn6-c6ccccc6)(c6ccc(Cl)cc6)O5)cc4)CC3)cc2)c1=O (relative stereo) [Compound 89]	510
CCC(C)n1ccn(-c2ccc(N3CCN(c4ccc(OC[C@H]5CO[C@](CSc6nncn6C)(c6ccc(Cl)cc6)O5)cc4)CC3)cc2)c1=O (relative stereo) [Compound 93]	27

SMILES	IC50 [nM]
CCC(C)N1CCN(c2ccc(N3CCN(c4ccc(OC[C@H]5CO[C@](CSc6nncn6C)(c6ccc(Cl)cc6)O5)cc4)CC3)cc2)C1=O (relative stereo) [Compound 94]	190
CCC(C)n1ncn(-c2ccc(N3CCN(c4ccc(OC[C@H]5CO[C@](CSc6ncccn6)(c6ccc(Cl)cc6)O5)cc4)CC3)cc2)c1=O (relative stereo) [Compound 101]	160
CCC(C)n1ncn(-c2ccc(N3CCN(c4ccc(OC[C@H]5CO[C@](CSc6nc(C)cc(C)n6)(c6ccc(Cl)cc6)O5)cc4)CC3)cc2)c1=O (relative stereo) [Compound 102]	370
CCC(C)n1ncn(-c2ccc(N3CCN(c4ccc(OC[C@H]5CO[C@](CSc6ccccn6)(c6ccc(Cl)cc6)O5)cc4)CC3)cc2)c1=O (relative stereo) [Compound 105]	99
CCC(C)n1ncn(-c2ccc(N3CCN(c4ccc(OC[C@H]5CO[C@](CSc6ccncc6)(c6ccc(Cl)cc6)O5)cc4)CC3)cc2)c1=O (relative stereo) [Compound 106]	880
CCC(C)n1ncn(-c2ccc(N3CCN(c4ccc(OC[C@H]5CO[C@](CSc6nc(C)co6)(c6ccc(Cl)cc6)O5)cc4)CC3)cc2)c1=O (relative stereo) [Compound 107]	45
CCC(C)n1ncn(-c2ccc(N3CCN(c4ccc(OC[C@H]5CO[C@](CSc6nccs6)(c6ccc(Cl)cc6)O5)cc4)CC3)cc2)c1=O (relative stereo) [Compound 108]	26
CCC(C)n1cnn(-c2ccc(N3CCN(c4ccc(OC[C@H]5CO[C@](CSc6nccs6)(c6ccc(Cl)cc6)O5)cc4)CC3)cc2)c1=O (relative stereo) [Compound 110]	27
CC(C)Cn1cnn(-c2ccc(N3CCN(c4ccc(OC[C@H]5CO[C@](CSc6nccs6)(c6ccc(Cl)cc6)O5)cc4)CC3)cc2)c1=O (relative stereo) [Compound 111]	62
CCC(C)n1ncn(-c2ccc(N3CCN(c4ccc(OC[C@@H]5CO[C@@](CSc6ncn(C(C)C)n6)(c6ccc(Cl)cc6)O5)cc4)CC3)cc2)c1=O (relative stereo) [Compound 112, (±)-cis-4-[4-[4-[4-[[2-(4-chlorophenyl)-2-[[[1-(1-methylethyl)-1H-1,2,4-triazol-3-yl]thio]methyl]-1,3-dioxolan-4-yl]methoxy]phenyl]-1-piperazinyl]phenyl]-2,4-dihydro-2-(1-methylpropyl)-3H-1,2,4-triazol-3-one]	980
CCC(CC)n1ccn(-c2ccc(N3CCN(c4ccc(OC[C@H]5CO[C@](CSc6nncn6C)(c6ccc(Cl)cc6)O5)cc4)CC3)cc2)c1=O (relative stereo) [Compound 122]	88
Cn1cnnc1SC[C@]1(c2ccc(Cl)cc2)OC[C@H](COc2ccc(N3CCN(c4ccc(-n5ccn(C6CCCC6)c5=O)cc4)CC3)cc2)O1 (relative stereo) [Compound 123]	74
CCC(C)n1ccn(-c2ccc(N3CCN(c4ccc(OC[C@H]5CO[C@](CSc6nncn6C)(c6ccc(F)cc6)O5)cc4)CC3)cc2)c1=O (relative stereo) [Compound 126]	140
Cn1cnnc1SC[C@]1(c2ccc(F)cc2)OC[C@H](COc2ccc(N3CCN(c4ccc(-n5ccn(C6CCCC6)c5=O)cc4)CC3)cc2)O1 (relative stereo) [Compound 128]	180
CCC(CC)n1ccn(-c2ccc(N3CCN(c4ccc(OC[C@H]5CO[C@](CSc6nncn6C)(c6ccc(F)cc6)O5)cc4)CC3)cc2)c1=O (relative stereo) [Compound 130]	140
CC[C@H](C)n1ncn(-c2ccc(N3CCN(c4ccc(OC[C@@H]5CO[C@@](CSc6nncn6C)(c6ccc(Cl)cc6)O5)cc4)CC3)cc2)c1=O [Compound 38]	65
CC[C@@H](C)n1ncn(-c2ccc(N3CCN(c4ccc(OC[C@@H]5CO[C@@](CSc6nncn6C)(c6ccc(Cl)cc6)O5)cc4)CC3)cc2)c1=O [Compound 40]	23
